Experiments:
CYP2B6 = biological target: T1, CYP2B6 (Homo sapiens, UniProt P20813); experiment: CYP reversible inhibition in HLMs; type: in vitro ADME
T1 sequence (P20813 1-491): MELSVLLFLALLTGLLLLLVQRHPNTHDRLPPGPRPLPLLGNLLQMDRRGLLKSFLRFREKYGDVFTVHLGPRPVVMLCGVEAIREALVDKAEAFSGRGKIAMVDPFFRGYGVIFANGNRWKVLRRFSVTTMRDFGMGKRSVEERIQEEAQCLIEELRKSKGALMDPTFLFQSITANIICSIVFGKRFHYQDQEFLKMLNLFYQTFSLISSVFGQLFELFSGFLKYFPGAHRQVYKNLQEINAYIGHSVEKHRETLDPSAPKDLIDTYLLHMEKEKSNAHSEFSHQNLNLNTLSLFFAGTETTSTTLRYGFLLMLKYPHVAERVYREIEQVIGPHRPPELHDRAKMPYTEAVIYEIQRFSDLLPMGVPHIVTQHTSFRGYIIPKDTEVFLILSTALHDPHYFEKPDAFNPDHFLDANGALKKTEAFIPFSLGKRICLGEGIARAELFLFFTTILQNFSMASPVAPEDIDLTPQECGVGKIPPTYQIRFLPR

CYP2C8 [1] = experiment: CYP induction in human hepatocytes; type: in vitro ADME
OATP1B1 = biological target: T2, OATP1B1 (Homo sapiens, UniProt Q9Y6L6); experiment: SLC transportation assay in HEK293 cells; type: in vitro ADME; conditions: uptake ratios <2 at 0.1, 0.3, 5 µM
T2 sequence (Q9Y6L6 1-691): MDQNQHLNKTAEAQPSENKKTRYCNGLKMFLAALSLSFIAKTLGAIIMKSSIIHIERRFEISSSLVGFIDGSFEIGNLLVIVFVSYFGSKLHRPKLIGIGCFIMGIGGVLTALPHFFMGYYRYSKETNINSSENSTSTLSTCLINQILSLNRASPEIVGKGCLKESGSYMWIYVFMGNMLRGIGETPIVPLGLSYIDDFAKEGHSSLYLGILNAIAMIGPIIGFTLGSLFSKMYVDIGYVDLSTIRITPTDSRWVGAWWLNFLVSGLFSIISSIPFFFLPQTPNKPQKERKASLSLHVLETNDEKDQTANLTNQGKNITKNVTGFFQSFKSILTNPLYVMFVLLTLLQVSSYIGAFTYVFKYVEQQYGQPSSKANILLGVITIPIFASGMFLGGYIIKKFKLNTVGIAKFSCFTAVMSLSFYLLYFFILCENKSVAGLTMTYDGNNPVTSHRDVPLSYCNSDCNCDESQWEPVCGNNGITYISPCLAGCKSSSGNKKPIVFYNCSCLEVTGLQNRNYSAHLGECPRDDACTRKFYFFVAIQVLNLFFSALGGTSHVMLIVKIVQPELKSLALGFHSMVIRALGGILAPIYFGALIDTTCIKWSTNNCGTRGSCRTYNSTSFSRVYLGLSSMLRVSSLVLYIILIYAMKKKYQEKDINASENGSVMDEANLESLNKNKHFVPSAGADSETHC

OATP1B3 = biological target: T3, OATP1B3 (Homo sapiens, UniProt Q9NPD5); experiment: SLC transportation assay in HEK293 cells; type: in vitro ADME; conditions: uptake ratios <2 at 0.1, 0.3, 5 µM
T3 sequence (Q9NPD5 1-702): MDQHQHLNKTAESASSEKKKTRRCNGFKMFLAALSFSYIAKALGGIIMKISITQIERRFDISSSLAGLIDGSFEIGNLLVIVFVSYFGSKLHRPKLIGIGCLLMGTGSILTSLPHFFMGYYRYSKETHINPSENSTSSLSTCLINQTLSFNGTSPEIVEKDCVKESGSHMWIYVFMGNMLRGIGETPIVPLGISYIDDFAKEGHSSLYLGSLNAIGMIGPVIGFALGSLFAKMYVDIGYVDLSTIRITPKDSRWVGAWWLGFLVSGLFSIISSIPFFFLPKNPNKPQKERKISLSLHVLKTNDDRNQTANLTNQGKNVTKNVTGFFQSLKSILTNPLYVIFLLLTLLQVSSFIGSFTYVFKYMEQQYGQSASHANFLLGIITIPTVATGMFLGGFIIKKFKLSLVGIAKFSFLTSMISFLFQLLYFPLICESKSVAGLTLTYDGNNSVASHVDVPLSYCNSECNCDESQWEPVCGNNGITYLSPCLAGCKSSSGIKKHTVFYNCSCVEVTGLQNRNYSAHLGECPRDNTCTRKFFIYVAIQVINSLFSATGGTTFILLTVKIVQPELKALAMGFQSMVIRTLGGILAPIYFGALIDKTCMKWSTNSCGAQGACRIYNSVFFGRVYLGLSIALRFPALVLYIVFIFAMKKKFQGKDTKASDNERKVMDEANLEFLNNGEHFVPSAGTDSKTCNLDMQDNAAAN

[2] = Clinical pharmacokinetic parameters of zanubrutinib; type: in vivo, human
CYP1A2 = conditions: DDI basic model value for induction
[3] = estimated from PBPK modeling; cited from earlier work
CYP2C8 [4] = biological target: T4, CYP2C8 (Homo sapiens, UniProt P10632); experiment: CYP reversible inhibition in HLMs; conditions: amodiaquine
T4 sequence (P10632 1-490): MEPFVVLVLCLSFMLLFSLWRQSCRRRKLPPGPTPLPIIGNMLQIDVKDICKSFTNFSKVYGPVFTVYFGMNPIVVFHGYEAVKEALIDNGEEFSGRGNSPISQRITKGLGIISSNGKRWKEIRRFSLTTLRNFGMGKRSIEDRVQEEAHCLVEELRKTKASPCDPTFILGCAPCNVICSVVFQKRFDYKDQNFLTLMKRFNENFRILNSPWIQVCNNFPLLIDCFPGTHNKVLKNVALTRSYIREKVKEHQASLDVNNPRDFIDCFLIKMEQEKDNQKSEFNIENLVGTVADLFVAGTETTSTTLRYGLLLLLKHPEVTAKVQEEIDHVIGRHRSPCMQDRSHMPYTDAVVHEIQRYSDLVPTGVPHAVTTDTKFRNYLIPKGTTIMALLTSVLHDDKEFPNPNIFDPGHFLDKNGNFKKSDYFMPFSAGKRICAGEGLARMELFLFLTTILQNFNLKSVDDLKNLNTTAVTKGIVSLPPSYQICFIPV

Q: With `C=CC(=O)N1CCC([C@@H]2CCNc3c(C(N)=O)c(-c4ccc(Oc5ccccc5)cc4)nn32)CC1` [zanubrutinib] as the molecule, how does the IC50 (CYP2B6) read?
A: Its IC50 is 121 µM.

Q: What about the Ki (CYP2B6; Ki, bupropion, Ki = IC50/2) of the same molecule?
A: Its Ki is 60.5 µM.

Q: And the Ki (CYP2B6; Kiu, bupropion, unbound Ki)?
A: Its Ki is 47.8 µM.

Q: What about the R1 (CYP2B6; bupropion, DDI basic model, hepatic) of the same molecule?
A: Its R1 is 1.00.

Q: What about the Ah (CYP2B6; bupropion, static model term, liver inhibition) of the same molecule?
A: The Ah was 1.00.

Q: What about the EC50 at 3 days (CYP2C8 [1]; human, cryopreserved human hepatocytes) of the same molecule?
A: Its EC50 at 3 days is […].

Q: And the Substrate status (OATP1B1)?
A: The Substrate status was “unlikely to be a substrate”.

Q: What about the Substrate status (OATP1B3) of the same molecule?
A: The Substrate status was “unlikely to be a substrate”.

Q: And the “Fa (fraction absorbed)” value ([2]; estimated from a human mass balance study)?
A: Its value is 0.70.

Q: And the “R 3” value (CYP1A2)?
A: Its value is 0.37.

Q: What about the “Fg (fraction available after intestinal metabolism)” value [3] of the same molecule?
A: Its value is 0.44.

Q: And the R1 (CYP2C8 [4]; DDI basic model, hepatic)?
A: Its R1 is 1.05.

Q: And the Ah (CYP2C8 [4]; static model term, liver inhibition)?
A: Its Ah is 0.95.

Source: PMC8524670 (Pharmacology Research & Perspectives, 2021)
